Drawing on article PMC4076210, “Discovery of Novel AKT Inhibitors with Enhanced Anti-Tumor Effects in Combination with the MEK Inhibitor” (PLoS ONE, 2014), this text covers inhibition for 2 compounds.

Where two headings read alike, the source gives them in different places.

Assay in all cases: Kinase panel
Holding throughout (format): biochemical

The target of one assay is T1, EphB3(h) (Homo sapiens, UniProt P54753).
T1 construct: purchased Millipore KinaseProfiler
T1 sequence (P54753 34-998): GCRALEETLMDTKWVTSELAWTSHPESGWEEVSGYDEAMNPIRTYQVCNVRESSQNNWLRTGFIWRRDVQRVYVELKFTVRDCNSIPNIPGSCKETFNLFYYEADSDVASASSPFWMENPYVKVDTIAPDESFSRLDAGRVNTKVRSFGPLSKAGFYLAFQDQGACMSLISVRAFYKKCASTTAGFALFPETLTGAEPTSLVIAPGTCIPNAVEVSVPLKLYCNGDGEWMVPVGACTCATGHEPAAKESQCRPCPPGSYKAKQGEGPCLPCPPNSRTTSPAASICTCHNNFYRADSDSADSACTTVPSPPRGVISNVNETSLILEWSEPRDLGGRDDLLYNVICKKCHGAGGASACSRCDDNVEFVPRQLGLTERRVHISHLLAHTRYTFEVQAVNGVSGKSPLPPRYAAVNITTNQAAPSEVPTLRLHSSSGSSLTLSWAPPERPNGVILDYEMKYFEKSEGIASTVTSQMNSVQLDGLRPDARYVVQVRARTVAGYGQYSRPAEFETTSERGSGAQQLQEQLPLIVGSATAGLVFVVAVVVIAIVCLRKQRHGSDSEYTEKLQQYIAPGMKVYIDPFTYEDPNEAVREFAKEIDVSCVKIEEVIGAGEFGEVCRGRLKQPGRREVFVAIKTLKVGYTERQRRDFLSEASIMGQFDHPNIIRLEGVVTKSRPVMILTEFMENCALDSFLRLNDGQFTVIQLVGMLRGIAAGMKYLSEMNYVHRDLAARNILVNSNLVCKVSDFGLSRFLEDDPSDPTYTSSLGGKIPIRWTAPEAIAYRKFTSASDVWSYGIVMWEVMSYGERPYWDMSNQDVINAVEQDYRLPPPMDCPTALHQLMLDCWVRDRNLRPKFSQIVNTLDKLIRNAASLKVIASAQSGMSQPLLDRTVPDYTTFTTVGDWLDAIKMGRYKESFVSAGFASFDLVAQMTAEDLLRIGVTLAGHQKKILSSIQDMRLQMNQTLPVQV

For a further assay, the target named is T2, IGF-1R(h) (Homo sapiens, UniProt P08069).
T2 construct: purchased Millipore KinaseProfiler
T2 sequence (P08069 31-1367): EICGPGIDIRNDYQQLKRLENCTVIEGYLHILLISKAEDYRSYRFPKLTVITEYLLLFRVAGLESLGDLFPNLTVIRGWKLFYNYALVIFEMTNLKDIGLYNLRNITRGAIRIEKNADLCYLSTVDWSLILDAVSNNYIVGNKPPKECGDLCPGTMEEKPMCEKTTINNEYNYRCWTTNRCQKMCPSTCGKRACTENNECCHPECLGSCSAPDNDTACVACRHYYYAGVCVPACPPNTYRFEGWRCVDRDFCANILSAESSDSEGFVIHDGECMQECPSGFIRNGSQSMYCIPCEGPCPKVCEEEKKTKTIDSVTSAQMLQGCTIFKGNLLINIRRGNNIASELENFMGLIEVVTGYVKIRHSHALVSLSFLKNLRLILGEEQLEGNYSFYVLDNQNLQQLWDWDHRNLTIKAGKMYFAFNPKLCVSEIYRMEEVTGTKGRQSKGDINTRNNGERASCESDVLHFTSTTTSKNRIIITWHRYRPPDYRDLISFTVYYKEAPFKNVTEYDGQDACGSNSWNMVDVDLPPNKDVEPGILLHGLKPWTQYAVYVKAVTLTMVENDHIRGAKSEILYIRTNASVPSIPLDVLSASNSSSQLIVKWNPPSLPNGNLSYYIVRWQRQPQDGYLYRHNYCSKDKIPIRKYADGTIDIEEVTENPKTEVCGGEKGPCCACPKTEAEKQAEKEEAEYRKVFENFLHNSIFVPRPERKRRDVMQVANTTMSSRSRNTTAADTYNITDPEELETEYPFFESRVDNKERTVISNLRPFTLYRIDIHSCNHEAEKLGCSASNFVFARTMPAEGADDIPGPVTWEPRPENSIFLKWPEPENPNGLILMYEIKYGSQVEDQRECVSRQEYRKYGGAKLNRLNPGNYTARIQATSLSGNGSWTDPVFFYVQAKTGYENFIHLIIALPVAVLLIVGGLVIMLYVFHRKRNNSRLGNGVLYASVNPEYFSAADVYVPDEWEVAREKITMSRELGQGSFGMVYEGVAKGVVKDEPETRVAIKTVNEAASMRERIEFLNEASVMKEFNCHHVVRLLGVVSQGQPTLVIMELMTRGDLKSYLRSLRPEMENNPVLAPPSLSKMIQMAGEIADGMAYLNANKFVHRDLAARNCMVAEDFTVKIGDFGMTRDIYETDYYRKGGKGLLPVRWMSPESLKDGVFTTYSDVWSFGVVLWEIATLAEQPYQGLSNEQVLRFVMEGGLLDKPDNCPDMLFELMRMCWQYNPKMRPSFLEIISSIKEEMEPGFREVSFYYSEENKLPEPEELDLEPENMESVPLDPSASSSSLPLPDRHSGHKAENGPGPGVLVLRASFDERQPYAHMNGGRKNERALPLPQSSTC

A further assay addresses T3, MLK1(h) (Homo sapiens, UniProt P80192).
T3 construct: purchased Millipore KinaseProfiler

The target of the next assay is T4, PKCη(h) (Homo sapiens, UniProt P24723).
T4 construct: purchased Millipore KinaseProfiler
T4 sequence (P24723 whole entry): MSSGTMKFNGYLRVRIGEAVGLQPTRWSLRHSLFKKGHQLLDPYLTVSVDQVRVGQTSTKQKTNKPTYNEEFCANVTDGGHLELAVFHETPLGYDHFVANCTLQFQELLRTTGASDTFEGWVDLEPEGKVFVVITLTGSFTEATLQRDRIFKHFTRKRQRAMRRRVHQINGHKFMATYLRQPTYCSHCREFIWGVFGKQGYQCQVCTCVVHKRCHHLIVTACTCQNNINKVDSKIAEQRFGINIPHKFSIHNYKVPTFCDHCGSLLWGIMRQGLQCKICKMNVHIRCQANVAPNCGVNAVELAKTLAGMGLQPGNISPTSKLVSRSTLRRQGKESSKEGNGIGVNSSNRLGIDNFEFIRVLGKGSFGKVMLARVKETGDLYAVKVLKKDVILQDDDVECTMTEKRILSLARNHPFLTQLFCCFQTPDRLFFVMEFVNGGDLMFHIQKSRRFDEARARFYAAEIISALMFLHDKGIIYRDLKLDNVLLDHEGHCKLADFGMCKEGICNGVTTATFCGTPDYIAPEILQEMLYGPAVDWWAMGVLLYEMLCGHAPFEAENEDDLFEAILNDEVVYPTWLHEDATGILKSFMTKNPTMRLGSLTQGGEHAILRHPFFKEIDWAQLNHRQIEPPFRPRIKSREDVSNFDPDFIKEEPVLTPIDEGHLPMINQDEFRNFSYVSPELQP

In another assay the target is T5, PKCμ(h) (Homo sapiens, UniProt Q15139).
T5 construct: purchased Millipore KinaseProfiler
T5 sequence (Q15139 1-912): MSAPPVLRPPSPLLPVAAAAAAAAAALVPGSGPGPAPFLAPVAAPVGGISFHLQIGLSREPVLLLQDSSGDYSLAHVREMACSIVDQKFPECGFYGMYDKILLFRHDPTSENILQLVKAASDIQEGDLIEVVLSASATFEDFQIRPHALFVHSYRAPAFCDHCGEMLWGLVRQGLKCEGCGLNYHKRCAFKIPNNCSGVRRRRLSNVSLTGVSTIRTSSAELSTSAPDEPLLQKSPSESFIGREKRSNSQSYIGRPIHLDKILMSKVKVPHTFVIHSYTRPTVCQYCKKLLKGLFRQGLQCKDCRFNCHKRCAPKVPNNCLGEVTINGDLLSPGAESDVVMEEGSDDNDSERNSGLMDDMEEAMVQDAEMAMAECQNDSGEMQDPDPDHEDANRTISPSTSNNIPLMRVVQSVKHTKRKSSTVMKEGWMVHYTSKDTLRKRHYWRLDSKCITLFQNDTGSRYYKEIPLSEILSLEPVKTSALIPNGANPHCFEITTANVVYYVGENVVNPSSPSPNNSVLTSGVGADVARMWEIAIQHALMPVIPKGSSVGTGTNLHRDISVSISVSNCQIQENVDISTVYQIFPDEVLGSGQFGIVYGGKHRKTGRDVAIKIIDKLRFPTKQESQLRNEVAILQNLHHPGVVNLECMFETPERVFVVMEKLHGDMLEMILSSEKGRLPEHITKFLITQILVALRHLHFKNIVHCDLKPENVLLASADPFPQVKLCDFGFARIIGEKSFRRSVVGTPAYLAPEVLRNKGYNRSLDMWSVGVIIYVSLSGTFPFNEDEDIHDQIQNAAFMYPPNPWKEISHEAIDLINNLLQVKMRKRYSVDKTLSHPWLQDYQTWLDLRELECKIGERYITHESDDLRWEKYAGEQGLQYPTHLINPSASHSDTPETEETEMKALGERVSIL

A further assay concerns the target T6, PrKX(h) (Homo sapiens, UniProt P51817).
T6 construct: purchased Millipore KinaseProfiler
T6 sequence (P51817 1-358): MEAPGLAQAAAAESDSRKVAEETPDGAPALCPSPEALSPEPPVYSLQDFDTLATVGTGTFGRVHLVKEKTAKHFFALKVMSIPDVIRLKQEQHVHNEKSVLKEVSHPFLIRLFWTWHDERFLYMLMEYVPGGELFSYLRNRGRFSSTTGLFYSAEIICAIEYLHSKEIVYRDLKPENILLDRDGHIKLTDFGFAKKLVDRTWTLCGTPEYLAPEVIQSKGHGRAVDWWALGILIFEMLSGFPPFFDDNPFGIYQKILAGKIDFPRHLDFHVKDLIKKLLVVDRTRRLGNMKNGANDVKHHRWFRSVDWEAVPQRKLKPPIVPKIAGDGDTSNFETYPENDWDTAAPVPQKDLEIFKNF

The target of a further assay is T7, Ron(h) (Homo sapiens, UniProt Q04912).
T7 construct: purchased Millipore KinaseProfiler
T7 sequence (Q04912 25-1400): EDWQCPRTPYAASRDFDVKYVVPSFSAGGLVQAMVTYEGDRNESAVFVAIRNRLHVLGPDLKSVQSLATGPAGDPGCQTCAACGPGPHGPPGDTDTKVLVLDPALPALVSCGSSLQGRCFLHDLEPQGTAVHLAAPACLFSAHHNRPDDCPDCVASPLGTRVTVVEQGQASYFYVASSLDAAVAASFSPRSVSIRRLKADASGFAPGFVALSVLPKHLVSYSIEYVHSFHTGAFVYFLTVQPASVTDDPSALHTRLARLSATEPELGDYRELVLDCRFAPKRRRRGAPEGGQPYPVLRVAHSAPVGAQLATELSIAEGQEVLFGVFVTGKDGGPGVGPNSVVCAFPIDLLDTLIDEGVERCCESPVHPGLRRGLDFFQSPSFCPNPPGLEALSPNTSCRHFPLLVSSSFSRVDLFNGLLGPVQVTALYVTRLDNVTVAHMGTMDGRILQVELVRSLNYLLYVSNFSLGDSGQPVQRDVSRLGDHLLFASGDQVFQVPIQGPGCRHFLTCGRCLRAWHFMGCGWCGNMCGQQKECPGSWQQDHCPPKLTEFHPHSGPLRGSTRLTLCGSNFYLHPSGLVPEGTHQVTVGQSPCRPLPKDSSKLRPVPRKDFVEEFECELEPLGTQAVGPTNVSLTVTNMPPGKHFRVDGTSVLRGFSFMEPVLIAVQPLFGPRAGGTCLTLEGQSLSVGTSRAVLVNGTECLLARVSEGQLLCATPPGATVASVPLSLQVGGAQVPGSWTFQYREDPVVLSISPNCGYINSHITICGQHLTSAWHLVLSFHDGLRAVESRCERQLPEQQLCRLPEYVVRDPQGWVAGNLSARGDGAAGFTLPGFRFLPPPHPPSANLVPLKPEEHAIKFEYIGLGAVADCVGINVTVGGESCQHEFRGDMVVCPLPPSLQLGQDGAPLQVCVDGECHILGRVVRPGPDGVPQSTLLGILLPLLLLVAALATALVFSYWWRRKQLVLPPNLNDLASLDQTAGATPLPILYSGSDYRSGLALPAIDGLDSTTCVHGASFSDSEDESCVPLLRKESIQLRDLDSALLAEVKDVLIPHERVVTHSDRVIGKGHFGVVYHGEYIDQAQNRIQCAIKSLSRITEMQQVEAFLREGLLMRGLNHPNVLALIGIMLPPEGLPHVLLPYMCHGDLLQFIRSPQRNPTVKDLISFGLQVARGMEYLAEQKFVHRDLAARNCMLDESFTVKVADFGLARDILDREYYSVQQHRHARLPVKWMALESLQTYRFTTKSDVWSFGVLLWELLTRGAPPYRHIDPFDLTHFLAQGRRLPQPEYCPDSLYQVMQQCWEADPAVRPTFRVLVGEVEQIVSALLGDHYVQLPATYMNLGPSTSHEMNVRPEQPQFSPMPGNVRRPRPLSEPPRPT

The target in the next assay is T8, Rsk3(h) (Homo sapiens, UniProt Q15349).
T8 construct: purchased Millipore KinaseProfiler
T8 sequence (Q15349 whole entry): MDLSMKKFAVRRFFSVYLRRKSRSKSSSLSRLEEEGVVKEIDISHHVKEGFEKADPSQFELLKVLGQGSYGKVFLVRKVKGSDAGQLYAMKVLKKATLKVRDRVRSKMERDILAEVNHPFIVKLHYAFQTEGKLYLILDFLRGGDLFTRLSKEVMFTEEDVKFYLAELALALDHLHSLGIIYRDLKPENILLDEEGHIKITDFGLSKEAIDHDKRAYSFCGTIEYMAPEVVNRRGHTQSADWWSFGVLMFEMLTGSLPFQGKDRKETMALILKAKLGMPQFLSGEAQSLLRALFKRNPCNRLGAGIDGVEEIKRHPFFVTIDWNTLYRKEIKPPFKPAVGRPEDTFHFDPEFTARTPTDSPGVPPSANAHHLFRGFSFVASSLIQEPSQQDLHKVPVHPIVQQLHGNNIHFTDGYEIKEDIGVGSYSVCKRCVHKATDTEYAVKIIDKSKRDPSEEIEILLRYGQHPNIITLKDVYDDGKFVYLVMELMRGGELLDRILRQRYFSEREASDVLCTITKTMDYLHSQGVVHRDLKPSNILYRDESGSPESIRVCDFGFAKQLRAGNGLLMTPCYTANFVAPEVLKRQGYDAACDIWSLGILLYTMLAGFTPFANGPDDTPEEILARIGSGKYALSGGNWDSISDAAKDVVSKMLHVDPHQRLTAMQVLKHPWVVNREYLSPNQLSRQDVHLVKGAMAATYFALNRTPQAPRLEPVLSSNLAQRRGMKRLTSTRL

For the compound `Cn1ncc(Cl)c1-c1cc(C(=O)N[C@H](CN)Cc2cccc(F)c2)sc1Cl` [GSK2110183], the inhibition at 0.5 µM is 12% on EphB3(h); 7% at IGF-1R(h); -8% against MLK1(h); 78% against PKCη(h); 27% on PKCμ(h); 70% against PrKX(h). Besides, the inhibition at 0.5 µM on Ron(h) was 12%; against Rsk3(h), 35%. For the same compound, the inhibition at 10 µM was -9% on EphB3(h); 25% at IGF-1R(h); 11% on MLK1(h); 97% against PKCη(h); 81% against PKCμ(h); 96% on PrKX(h). Further, the inhibition at 10 µM at Ron(h) turned out to be 30%; against Rsk3(h), 89%.

As to `Cn1ncc(Cl)c1-c1cc(C(=O)N[C@H](CN)Cc2ccc(F)c(F)c2)oc1Cl` [GSK2141795], the inhibition at 0.5 µM at EphB3(h) (0.5 µM, read-out: % Inhibition) is -2%; at IGF-1R(h) (0.5 µM, read-out: % Inhibition) it was 6%; at MLK1(h) (0.5 µM, read-out: % Inhibition) it was -14%; at PKCη(h) (0.5 µM, read-out: % Inhibition), 86%; on PKCμ(h) (0.5 µM, read-out: % Inhibition) it was 37%; on PrKX(h) (0.5 µM, read-out: % Inhibition) it was 91%. The inhibition at 0.5 µM at Ron(h) (0.5 µM, read-out: % Inhibition) worked out at 5%; at Rsk3(h) (0.5 µM, read-out: % Inhibition) it was 51%. The inhibition at 10 µM on EphB3(h) (10 µM, read-out: % Inhibition) came out at 9%; at IGF-1R(h) (10 µM, read-out: % Inhibition) it was 31%; on MLK1(h) (10 µM, read-out: % Inhibition), 45%; on PKCη(h) (10 µM, read-out: % Inhibition), 99%; at PKCμ(h) (10 µM, read-out: % Inhibition), 91%; on PrKX(h) (10 µM, read-out: % Inhibition) it was 98%. Besides, the inhibition at 10 µM at Ron(h) (10 µM, read-out: % Inhibition) worked out at 73%; on Rsk3(h) (10 µM, read-out: % Inhibition), 94%.
